Patent publication US9126999B2, “Tetrahydropyrazolopyrimidine compounds” (EISAI R&D MANAGEMENT CO., LTD., priority 2012, dated 2015)
Entries after “also recorded” stand apart in the source; their conditions may differ.

Test system: NZBWF1/J mice
Test: NZBxNZW strain lupus disease model
Assay type: in vivo, mouse
Settings: NZB/W model; for anti-dsDNA titers: QD PO; for proteinuria: UACR
Experimental: Figure Legend: Female NZBWF1/J mice were received at 6 weeks of age, baseline bleeds were performed, and mice were monitored for disease progression by following anti-dsDNA titers. At 20 weeks of age, mice were randomized into groups with equivalent median anti-dsDNA titers and treated at 23 weeks of age with Vehicle (Veh; 0.5% methyl-cellulose) alone or 33, 100, or 300 mg/kg ER-892887 once-a-day orally (QD PO). All mice were sacrificed at 45 weeks of age (22 weeks total treatment) and blood plasma anti-dsDNA titers were determined by ELISA. (A) Impact of ER-892887 treatment over time on anti-dsDNA titers. (B) Bar graph of +22 weeks treatment data for ER-892887 derived from data shown in (A). (C) Just prior to termination at 45 weeks of age (following 22 weeks of treatment), urine was collected from individual mice, and the Urinary Albumin Creatinine Ratio (UACR, proteinuria) was determined for each animal as an indirect measure of kidney function. (D) Summary of mortality observed in this study. (E) At the time of sacrifice, kidneys were collected from individual mice, fixed in 10% formalin for 24 hours, embedded in paraffin, and H&E stained sections were generated for histopathology assessment in a blinded fashion. Statistical significance was determined by Mann-Whitney test for (C).
Figure Legend. Female NZBWF1/J mice were received at 8 weeks of age, baseline bleeds were performed, and mice were monitored for disease progression by following anti-dsDNA titers. At 24 weeks of age, mice were randomized into groups with equivalent median anti-dsDNA titers and treated at 25 weeks of age QD PO with Vehicle (Veh; 0.5% methyl-cellulose) alone or 33, 100, or 300 mg/kg ER-892887. Anti-dsDNA titers were determined by ELISA on blood plasma samples at the time points indicated. (A) Impact of compound treatment on median anti-dsDNA titers over time up to +17 weeks of treatment. (B) Impact of compound treatment on median anti-dsDNA at the +13 weeks of treatment time point only from data shown in (A). (C) After 13 weeks (top graph) or 17 weeks (bottom graph) of compound treatment, urine was collected from individual mice, and the Urinary Albumin Creatinine Ratio (UACR, proteinuria) was determined for each animal as an indirect measure of kidney function. Mice indicated within the circle with high UACR were those animals that died between the +13 wks and +17 wks of treatment (statistical significance was determined by Mann-Whitney test). (D) Blood urea nitrogen (BUN) measured in the plasma from select groups after 13 weeks of treatment. (E) Mortality curves for Vehicle versus compound treated mice up to 17 weeks of treatment. […] (F) Summary of mortality observed in this study.
Figure Legend: Female NZBWF1/J mice were received at 6 weeks of age, baseline bleeds were performed, and mice were monitored for disease progression by following anti-dsDNA titers. At 24 weeks of age, mice were randomized into groups with equivalent median anti-dsDNA titers and treated with Vehicle (Veh; 0.5% methyl-cellulose) alone or 300 mg/kg ER-885454 once-a-day orally (QD PO). All mice were sacrificed at 47 weeks of age (23 weeks total treatment) and blood plasma anti-dsDNA titers were determined by ELISA (A). (B) Just prior to termination at 47 weeks of age, urine was collected from individual mice, and Urinary Albumin Creatinine Ratio (UACR, proteinuria) was determined for each animal as an indirect measure of kidney function. (C) At the time of sacrifice, kidneys were collected from individual mice, fixed in 10% formalin for 24 hours, embedded in paraffin, and H&E stained sections were generated for histopathology assessment in a blinded fashion. Statistical significance was determined by Mann-Whitney test for (A) above.
Figure Legend: Female NZBWF1/J mice were received at 4 weeks of age, baseline bleeds were performed at 10 and 26 weeks, and mice were monitored for disease progression by following anti-dsDNA titers and proteinuria. […]

Row | SMILES | histological signs of glomerulonephritis | anti-dsDNA titers | proteinuria | delay of development of proteinuria compared with two drugs commonly used in the treatment of human lupus | efficacy in combination with hydroxychloroquine and prednisolone | survival (vs. Vehicle, 33-100 mg/kg QD PO, long-term dosing)
1 | COc1ccc([C@@H]2C[C@H](C(F)(F)F)n3nc(-c4ccncc4)cc3N2)cc1OC [ER-885454] | reduced | reduced | reduced |  |  | 
2 | COc1ccc([C@@H]2C[C@H](C(F)(F)F)n3nc(-c4ccc(C(=O)N5CCNCC5)cc4)cc3N2)cc1OC [ER-892887, (4-((5S,7R)-5-(3,4-dimethoxyphenyl)-7-(trifluoromethyl)-4,5,6,7-tetrahydropyrazolo[1,5-a]pyrimidin-2-yl)phenyl)(piperazin-1-yl)methanone] | reduced | reduced | reduced proteinuria | more effectively | efficacious | statistically significant survival benefit; also recorded: afforded survival benefit; also recorded: significantly enhanced survival
